Assay results as given in patent US20220105170A1 (priority 2019, published 2022).
Where “and” joins values, the source holds several entries; their conditions need not be identical. Equal values may be shown once.

Tested on: peripheral blood lymphocytes collected from swine exposed to ASFV
Format: cell-based

Row | Substance | Number of Spots
1 | 2265 (RYRHFKDWRLI) [compound 2265] | 13
2 | 1212 (TFLLKKRMEL) [compound 1212] | 19
3 | 69 (KVNKSMPLI) [compound 69] | 255
4 | 2171 (FIRLYPHIFY) [compound 2171] | 18
5 | 1372 (NVSRAREFY) [compound 1372] | 12
6 | 1517 (ATKKALIHF) [compound 1517] | 13
7 | 1024 (SQKLVQLFY) [compound 1024] | 20
8 | 1436 (NKANKAFYI) [compound 1436] | 13
9 | 1184 (LSDLRNFSF) [compound 1184] | 16
10 | 931 (SIDYWVSFNK) [compound 931] | 12
11 | 757 (CFMMQCKSIY) [compound 757] | 16
12 | 2037 (MCGKRNCPLY) [compound 2037] | 12
13 | 585 (VVDDVPSIDY) [compound 585] | 12
14 | 469 (HVVQRLGLY) [compound 469] | 14
15 | 1736 (VTQRNQNYF) [compound 1736] | 13
16 | 369 (KHTLQWLGLY) [compound 369] | 16
17 | 1033 (SVSPVFTSGY) [compound 1033] | 16
18 | 1188 (VSNILHSVF) [compound 1188] | 13
19 | 860 (KARLCGLSY) [compound 860] | 14 and 19
20 | 908 (VGYNNVCYY) [compound 908] | 16
21 | 1348 (LMSALKWPIEY) [compound 1348] | 12
22 | 1106 (CSSCMVRTY) [compound 1106] | 130
23 | 458 (IVSEYINYLF) [compound 458] | 16
24 | 1454 (INHLYKFLL) [compound 1454] | 12 and 18
25 | 756 (FTDNLCFMM) [compound 756] | 19
26 | 2194 (RSCDYAPGFY) [compound 2194] | 12

Row | Substance | Number of Spots
27 | 1835 (KILGLLLAY) [compound 1835] | 21
28 | 925 (KKQKHVSLL) [compound 925] | 14
29 | 1172 (RCQHHAFSY) [compound 1172] | 12
30 | 1952 (LSKNIAAEY) [compound 1952] | 17
31 | 1483 (KTIKHYEQL) [compound 1483] | 12
32 | 2197 (KVRNKAIELY) [compound 2197] | 17
33 | 1264 (RINRNYYPYYI) [compound 1264] | 12
34 | 1685 (NINRLMPYF) [compound 1685] | 12
35 | 2146 (KLLTHFNIYR) [compound 2146] | 16
36 | 1814 (YTIHYSMPY) [compound 1814] | 17
37 | 1941 (AIEEEDIQF) [compound 1941] | 12
38 | 2159 (RIHTRFGQYY) [compound 2159] | 15
39 | 744 (SKFCNHMFFR) [compound 744] | 18
40 | 1571 (KTVQHIEQY) [compound 1571] | 14
41 | 1864 (SMPMSMIGPY) [compound 1864] | 13
42 | 880 (SSIVFQHEM) [compound 880] | 66
43 | 1120 (SLPDVSTLPY) [compound 1120] | 13
44 | 64 (KVNNSMPLI) [compound 64] | 32
45 | 1912 (KQFEMFNMVY) [compound 1912] | 12
46 | 625 (SVFMWICIY) [compound 625] | 15
47 | 2266 (YRHFKDWRL) [compound 2266] | 14
48 | 2092 (KAKIAFPPEY) [compound 2092] | 17
49 | 1488 (STQFMIQYF) [compound 1488] | 13
50 | 1628 (SAMLEFKKF) [compound 1628] | 12
51 | 906 (WVGYNNVCYY) [compound 906] | 12
52 | 1767 (LLDTNTNFY) [compound 1767] | 13 and 21

Row | Substance | Number of Spots
53 | 2175 (RLYPHIFYR) [compound 2175] | 16
54 | 565 (SKVMDMICLDY) [compound 565] | 17
55 | 2193 (ALNRHITTY) [compound 2193] | 12
56 | 869 (GLAALVSPY) [compound 869] | 13
57 | 1468 (ITYLNNMGY) [compound 1468] | 13
58 | 1111 (RTDFVWVADL) [compound 1111] | 13
59 | 1923 (RISSELISY) [compound 1923] | 13
60 | 1187 (FSEHTKFFSY) [compound 1187] | 15 and 16
61 | 1295 (SQMGAHGQL) [compound 1295] | 17
62 | 1151 (NLSEVVTAY) [compound 1151] | 16
63 | 1091 (LFPQYISYY) [compound 1091] | 17
64 | 275 (ATYNHRKILIY) [compound 275] | 21
65 | 523 (MGFSKPFMR) [compound 523] | 12
66 | 1631 (FTQITRQTF) [compound 1631] | 12
67 | 1288 (HFNAHFKPY) [compound 1288] | 16
68 | 70 (KSMPLIVENSY) [compound 70] | 35
69 | 1658 (AFINSTDFLY) [compound 1658] | 12
70 | 1129 (IMDDLVEEY) [compound 1129] | 14
71 | 2141 (RFFKKLLTHF) [compound 2141] | 12
72 | 1836 (GKTMPVEFYY) [compound 1836] | 17
73 | 1753 (YFDTFANAM) [compound 1753] | 13
74 | 1567 (QAQEEWNMIL) [compound 1567] | 13
75 | 1279 (YPYYIYKIF) [compound 1279] | 12
76 | 1718 (SSELHFYVF) [compound 1718] | 15
77 | 447 (NIIHTIYQSY) [compound 447] | 331
78 | 1556 (QVVFHAGSLY) [compound 1556] | 13

Row | Substance | Number of Spots
79 | 1512 (QIYKTLLEY) [compound 1512] | 21
80 | 2140 (YFRFFKKLL) [compound 2140] | 16
81 | 1287 (VHFNAHFKPY) [compound 1287] | 14
82 | 85 (KSELSYWCTY) [compound 85] | 20
83 | 1265 (INRNYYPYY) [compound 1265] | 12
84 | 84 (KVLGLLLGY) [compound 84] | 16
85 | 1783 (GMQDGIRWFY) [compound 1783] | 13
86 | 2222 (ISFSEMLTRYW) [compound 2222] | 12
87 | 1580 (SNMKQFCKI) [compound 1580] | 12
88 | 2127 (AIQKNYFRF) [compound 2127] | 15
89 | 1065 (KTRGTRLFF) [compound 1065] | 36
90 | 1573 (KVIRAHNFI) [compound 1573] | 12
91 | 857 (AVNSTGLIGY) [compound 857] | 17
92 | 283 (YTHLNTWRL) [compound 283] | 18
93 | 1511 (RSLSNFQAL) [compound 1511] | 17
94 | 647 (GADPTQKDY) [compound 647] | 14
95 | 1523 (STAQVHLDF) [compound 1523] | 14
96 | 896 (SGLQSFYLY) [compound 896] | 18 and 26
97 | 2223 (SFSEMLTRY) [compound 2223] | 12
98 | 1049 (SLEFNTFYAF) [compound 1049] | 15
99 | 309 (FTKAIHYFYKR) [compound 309] | 12
100 | 1484 (GTSYLRMAY) [compound 1484] | 14
101 | 1749 (TLDFDRMWY) [compound 1749] | 15
102 | 1627 (GTDLYQSAM) [compound 1627] | 12
103 | 1020 (QTNCQLYFF) [compound 1020] | 18
104 | 2242 (YNLTEAIQY) [compound 2242] | 12

Row | Substance | Number of Spots
105 | 1375 (RAREFYISW) [compound 1375] | 15
106 | 1390 (QQMLTRHIY) [compound 1390] | 12
107 | 726 (DMYSVIFNIKY) [compound 726] | 14
108 | 1528 (KTYTLLTKPY) [compound 1528] | 13
109 | 56 (MRYTQIYKYPL) [compound 56] | 23
110 | 2134 (KNYFRFFKK) [compound 2134] | 16
111 | 1840 (SLANHTVKYY) [compound 1840] | 14
112 | 1544 (GSLYPTQFDY) [compound 1544] | 14
113 | VLIEFLTGFF [SEQ ID NO. 554] | 16
114 | 888 (TMMHYPTFNW) [compound 888] | 12
115 | 279 (KTDLLNNEF) [compound 279] | 17
116 | 971 (LTLSSNYFY) [compound 971] | 12
117 | 328 (KNHLYWRV) [compound 328] | 13
118 | 1107 (RTIPVAWDRF) [compound 1107] | 18
119 | 725 (SDMYSVIFNI) [compound 725] | 15
120 | 2211 (ASFKEGLSL) [compound 2211] | 12
121 | 1873 (KLYTAALGVY) [compound 1873] | 12
122 | 1139 (ALANTSANY) [compound 1139] | 12
123 | 962 (TTLINCTY) [compound 962] | 12
124 | 321 (KRHKNHLY) [compound 321] | 14
125 | 1090 (ALFPQYISYY) [compound 1090] | 106
126 | 1989 (RMHIYETNLY) [compound 1989] | 14
127 | 923 (VLLRDSGYY) [compound 923] | 14 and 16
128 | 724 (HSDMYSVIFNI) [compound 724] | 15
129 | 534 (RYFTFKFAAHL) [compound 534] | 12
130 | 1810 (KTIFNNVRY) [compound 1810] | 13
